Like-named read-outs stand apart in the source and are kept apart here. Positions of bridges follow the written chain, without caps; N, C: chain ends. Non-standard residues stand in square brackets, D forms with d. Residues, ends and D or L forms follow the SMILES beside them. *: point of attachment. Myristoyl = CCCCCCCCCCCCCC(=O)*; R8 = C=CCCCCCC[C@@](C)(N)C(=O)O; R5 = C=CCCC[C@@](C)(N)C(=O)O; S5 = C=CCCC[C@](C)(N)C(=O)O
T1: FAK FAT domain (biotinylated Avitag-FAT protein) (Homo sapiens, UniProt Q05397)
T1 construct: biotinylated Avitag-FAT protein was diluted in running buffer
T1 sequence (Q05397 914-1045 limits assumed): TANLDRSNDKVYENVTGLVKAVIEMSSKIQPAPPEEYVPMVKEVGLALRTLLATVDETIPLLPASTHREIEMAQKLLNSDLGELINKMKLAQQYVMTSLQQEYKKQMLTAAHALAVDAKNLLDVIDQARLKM

T2: FAK FAT domain (paxillin-FAT binding) (Homo sapiens, UniProt Q05397)
T2 construct: FP Buffer containing 20 μM FAT and 0.1 μM TAMRA-LD2
T2 sequence (Q05397 914-1045 limits assumed): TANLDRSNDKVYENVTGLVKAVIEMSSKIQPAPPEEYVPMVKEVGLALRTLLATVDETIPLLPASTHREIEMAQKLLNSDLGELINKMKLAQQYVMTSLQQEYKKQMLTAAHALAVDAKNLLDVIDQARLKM

T3: biotinylated Avitag-FAT protein (UniProt Q05397 919-1052, limits assumed, biotinylated (Avitag))
T3 construct: domain: FAT; Immobilised on a streptavidin sensor for SPR; also called WT FAT; FAT domain of FAK; not shown: Avitag
T3 sequence (looked up): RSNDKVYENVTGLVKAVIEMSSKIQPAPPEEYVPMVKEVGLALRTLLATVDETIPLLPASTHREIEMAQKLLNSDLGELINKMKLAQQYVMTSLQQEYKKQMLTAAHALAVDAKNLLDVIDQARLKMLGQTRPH


Experiments:
[1] = biological target: T1, FAK FAT domain (biotinylated Avitag-FAT protein); test: Surface plasmon resonance (SPR) binding to immobilised FAT protein; conditions: for Kd: FAT protein immobilised, peptide 200 μM-0.01 μM, 1:1 binding model; for binding and inhibitory properties (SPR/FP) in words, compared to 1907: SAR discussion of SPR and FP data
Method: SPR binding studies were performed on a ForteBio Pioneer FE SPR system. In brief, a SADH Streptavidin in Dextran Hydrogel biosensor (ForteBio) was docked onto the flow cell and preconditioned with two injections of 10 mM NaOH, 1 M NaCl for 1 min at 50 μL/min. […] Empty channel 2 served as the reference control. After achieving a stable baseline, a concentration series (200 μM-0.01 μM) of peptide was prepared in final running buffer (100 mM Tris-HCl, 200 mM NaCl, 0.05% Tween-20, 5% DMSO) and injected using the OneStep gradient injection method at a flow rate of 75 μL/min. […] Raw SPR data were appropriately processed in Qdat software (ForteBio) by normalizing the baseline prior to injection, aligning the channels, subtraction of the reference channel, and blank subtraction. Kinetic data were fitted to a pseudo-first order 1:1 interaction binding model using to calculate KD. In addition, a steady-state model and Req data points were used to validate the binding affinity. Visual inspection of the SPR sensograms was performed to verify appropriate model fitting, lack of mass transport effects, return to baseline, and lack of irregular kinetics.

[2] = biological target: T2, FAK FAT domain (paxillin-FAT binding); test: Competition fluorescence polarization (FP) assay, inhibition of TAMRA-LD2 binding to FAT
Method: The FP assay buffer used was 20 mM Tris, 200 mM NaCl, 0.05% β-me, 0.1% Triton X-100, 5% glycerol, and 1× Halt protease inhibitor cocktail. […] Bodipy TMR FP optical module (2100-4100) was used as the mirror.
Wells with no FAT were used as a baseline value which was subtracted from the raw values to produce ΔmP values. The plate was read at every hour for four hours to test for time differences in IC50. The titration data was processed through GraphPad Prism to produce a dose response curve and a calculated IC50 with standard error (SE). A four-parameter dose-response inhibition model was utilized and the bottom fit was constrained to the lower plateau of the curve. Ki was determined from the following calculation:
P0 is the concentration of free protein and KD is calculated from the saturation curve. 150 is calculated by the following equation:
where PT is the total protein concentration, LT is the total labeled-ligand concentration, P0 is the positive root of P0^2+(KD+LT)*P0−PT, PL0=P−P0, PL50=PL0/2, L0=LT-PL0, and L50=LT-PL50.

[3] = test system: SK-MEL-103 melanoma cells; test: 3D Matrigel-on-top proliferation assay; format: cell-based; conditions: SK-MEL-103 melanoma cells, 3D Matrigel-on-top
Method: B. Competition FP experiment with 1907 showing inhibition of TAMRA-LD2 binding to FAT. C. SPR binding and selectivity analysis using WT FAT and Mutant FAT (L994E, 1936A) at the helix-protein interface. D. Flow cytometry analysis of Rhodamine-1907 (10 μM) cellular uptake in MDA-MB-453 breast cancer cells. E. Boyden-chamber invasion assays in SK-MEL-103 melanoma cells. F. 3D Matrigel-on-top proliferation assays in SK-MEL-103 melanoma cells.
B. 3D structure of negative control molecule (UACC-2020). C. 3D Matrigel-on-top cell proliferation data of stapled peptides in SK-MEL-103 melanoma cells.
A negative control myristoylated peptide (2020) was designed and synthesized based on non-active molecule 2014. Experiments were conducted to test the efficacy of these peptides in 3D proliferation assays using SK-MEL-103 melanoma cells. […] Furthermore, 2012 had no effects on the proliferation of normal HUVEC cells (IC50=NA) (FIG. 7).

[4] = biological target: T3, biotinylated Avitag-FAT protein; test: SPR, biotinylated Avitag-FAT immobilised
Method: SPR binding studies were performed on a ForteBio Pioneer FE SPR system. In brief, a SADH Streptavidin in Dextran Hydrogel biosensor (ForteBio) was docked onto the flow cell and preconditioned with two injections of 10 mM NaOH, 1 M NaCl for 1 min at 50 μL/min. […] Empty channel 2 served as the reference control. After achieving a stable baseline, a concentration series (200 μM-0.01 μM) of peptide was prepared in final running buffer (100 mM Tris-HCl, 200 mM NaCl, 0.05% Tween-20, 5% DMSO) and injected using the OneStep gradient injection method at a flow rate of 75 μL/min. 3% sucrose was utilized as a bulk standard control for OneStep injection and a DMSO calibration curve was performed using a concentration range of 3.5% to 6.5% DMSO. Raw SPR data were appropriately processed in Qdat software (ForteBio) by normalizing the baseline prior to injection, aligning the channels, subtraction of the reference channel, and blank subtraction. Kinetic data were fitted to a pseudo-first order 1:1 interaction binding model using to calculate KD. In addition, a steady-state model and Req data points were used to validate the binding affinity. Visual inspection of the SPR sensograms was performed to verify appropriate model fitting, lack of mass transport effects, return to baseline, and lack of irregular kinetics.

| Molecule | Kd ([1]; read-out: SPR KD) | Ki ([2]; read-out: FP Ki) | binding and inhibitory properties (SPR/FP) in words, compared to 1907 [1] | further results |
| --- | --- | --- | --- | --- |
| CC(=O)N[C@@H](CC(N)=O)C(=O)N[C@@H](CC(C)C)C(=O)N[C@@H](CO)C(=O)N[C@@H](CCC(=O)O)C(=O)N[C@@H](CC(C)C)C(=O)N[C@@H](CC(=O)O)C(=O)N[C@@H](CCCNC(=N)N)C(=O)N[C@@]1(C)CCCC=CCCC[C@@](C)(C(=O)N[C@@H](CC(N)=O)C(N)=O)NC(=O)[C@H](CCC(=O)O)NC(=O)[C@H](CC(C)C)NC(=O)[C@H](CC(C)C)NC1=O [Peptide 2015] (Ac-NLSELDR[S5]LLE[S5]N-NH2; staple 8-12) | – | – | did not show much activity compared to 1907 | Kd ([1]; SPR KD): 47.5 µM; Ki [2]: 114 µM |
| CC(=O)N[C@@H](CC(N)=O)C(=O)N[C@@H](CC(C)C)C(=O)N[C@@H](CO)C(=O)N[C@@H](CCC(=O)O)C(=O)N[C@@H](CC(C)C)C(=O)N[C@@H](CC(=O)O)C(=O)N[C@@H](CCCNC(=N)N)C(=O)N[C@@H](CC(C)C)C(=O)N[C@]1(C)CCCC=CCCC[C@@](C)(C(=O)N[C@@H](CC(N)=O)C(N)=O)NC(=O)[C@H](CCC(=O)O)NC(=O)[C@H](CC(C)C)NC1=O [Peptide 1921] (Ac-NLSELDRL[R5]LE[S5]N-NH2; staple 9-12) | – | 492 µM | did not show much activity compared to 1907 | – |
| CC(=O)N[C@@H](CO)C(=O)N[C@@H](C)C(=O)N[C@H](C(=O)N[C@@H](CCCNC(=N)N)C(=O)N[C@@H](CCC(=O)O)C(=O)N[C@@]1(C)CCCC=CCCC[C@@](C)(C(=O)N[C@@H](C)C(=O)N[C@@H](CO)C(=O)N[C@@H](CC(C)C)C(=O)N[C@@H](CO)C(=O)N[C@@H](CC(=O)O)C(N)=O)NC(=O)[C@H](CC(C)C)NC(=O)[C@H](CCC(=O)O)NC(=O)[C@H](CC(=O)O)NC1=O)[C@@H](C)O [Peptide 1917, Ac-SATRES5DELS5ASLSD-NH2] (Ac-SATRE[S5]DEL[S5]ASLSD-NH2; staple 6-10) | 4.9 µM | 6.72 µM | similar, albeit lower activity than LD2-derived 1907 | – |
| Ac-SLGSNL[R8]ELDRLL[S5]ELNAVQH-NH2 (staple 7-14; SMILES CC(=O)N[C@@H](CO)C(=O)N[C@@H](CC(C)C)C(=O)NCC(=O)N[C@@H](CO)C(=O)N[C@@H](CC(N)=O)C(=O)N[C@@H](CC(C)C)C(=O)N[C@]1(C)CCCCCCC=CCCC[C@@](C)(C(=O)N[C@@H](CCC(=O)O)C(=O)N[C@@H](CC(C)C)C(=O)N[C@@H](CC(N)=O)C(=O)N[C@@H](C)C(=O)N[C@H](C(=O)N[C@@H](CCC(N)=O)C(=O)N[C@@H](Cc2c[nH]cn2)C(N)=O)C(C)C)NC(=O)[C@H](CC(C)C)NC(=O)[C@H](CC(C)C)NC(=O)[C@H](CCCNC(=N)N)NC(=O)[C@H](CC(=O)O)NC(=O)[C@H](CC(C)C)NC(=O)[C@H](CCC(=O)O)NC1=O) [1920] | – | – | – | Kd [4]: 6.95 µM |
| Ac-[R8]ELDRLL[S5]-NH2 (staple 1-8) [2011] | – | – | – | Kd [4]: > 200 µM |

The next lines start with results.

| Kd ([1]; read-out: SPR KD) | Molecule | Ki ([2]; read-out: FP Ki) | binding and inhibitory properties (SPR/FP) in words, compared to 1907 [1] | further results |
| --- | --- | --- | --- | --- |
| > 200 µM | CC(C)C[C@@H]1NC(=O)[C@H](CCCNC(=N)N)NC(=O)[C@H](CC(=O)O)NC(=O)[C@H](CC(C)C)NC(=O)[C@](C)(NC(=O)[C@H](CO)NC(=O)[C@H](CC(C)C)NC(=O)[C@@H](N)CC(N)=O)CCCCCCC=CCCC[C@@](C)(C(=O)N[C@@H](CC(C)C)C(=O)N[C@@H](CC(N)=O)C(N)=O)NC(=O)[C@H](CC(N)=O)NC(=O)[C@H](CC(C)C)NC1=O [Peptide 1906, H-NLSR8LDRLLNS5LN-NH2] (H-NLS[R8]LDRLLN[S5]LN-NH2; staple 4-11) | > 1250 µM | – | – |
| > 200 µM | CCCCCCCCCCCCCC(=O)N[C@@H](CC(N)=O)C(=O)N[C@@H](CC(C)C)C(=O)N[C@]1(C)CCCCCCC=CCCC[C@@](C)(C(=O)N[C@@H](CCC(=O)O)C(=O)N[C@@H](CCC(=O)O)C(=O)N[C@@H](CC(N)=O)C(N)=O)NC(=O)[C@H](CC(C)C)NC(=O)[C@H](CC(C)C)NC(=O)[C@H](CCCNC(=N)N)NC(=O)[C@H](CC(=O)O)NC(=O)[C@H](CCC(=O)O)NC(=O)[C@H](CCC(=O)O)NC1=O [Peptide 2020, Myristoyl-NLR8EEDRLLS5EEN-NH2] (Myristoyl-NL[R8]EEDRLL[S5]EEN-NH2; staple 3-10) | > 1250 µM | – | 3D proliferation IC50 [3]: no effect |
| > 200 µM | CC(=O)N[C@@H](CC(N)=O)C(=O)N[C@@H](CC(C)C)C(=O)N[C@@H](CO)C(=O)N[C@@H](CCC(=O)O)C(=O)N[C@]1(C)CCCCCCC=CCCC[C@@](C)(C(=O)N[C@@H](CC(N)=O)C(N)=O)NC(=O)[C@H](CCC(=O)O)NC(=O)[C@H](CC(C)C)NC(=O)[C@H](C)NC(=O)[C@H](C)NC(=O)[C@H](CCCNC(=N)N)NC(=O)[C@H](CC(=O)O)NC1=O [Peptide 1925, Ac-NLSER8DRAALES5N-NH2] (Ac-NLSE[R8]DRAALE[S5]N-NH2; staple 5-12) | 492 µM | – | – |
| > 200 µM | CC(=O)N[C@@H](CC(N)=O)C(=O)N[C@]1(C)CCCC=CCCC[C@@](C)(C(=O)N[C@@H](CC(=O)O)C(=O)N[C@@H](CCCNC(=N)N)C(=O)N[C@@H](CC(C)C)C(=O)N[C@@H](CC(C)C)C(=O)N[C@@H](CC(C)C)C(=O)N[C@@H](CCC(=O)O)C(=O)N[C@@H](CC(C)C)C(=O)N[C@@H](CC(N)=O)C(N)=O)NC(=O)[C@H](CCC(=O)O)NC(=O)[C@H](CO)NC1=O [Peptide 2024] (Ac-N[R5]SE[S5]DRLLLELN-NH2; staple 2-5) | 412 µM | did not show much activity compared to 1907 | – |
| 20.3 µM | CC(=O)N[C@@H](CC(N)=O)C(=O)N[C@]1(C)CCCCCCC=CCCC[C@@](C)(C(=O)N[C@@H](CC(C)C)C(=O)N[C@@H](CCC(=O)O)C(=O)N[C@@H](CC(C)C)C(=O)N[C@@H](CC(N)=O)C(N)=O)NC(=O)[C@H](CC(C)C)NC(=O)[C@H](CCCNC(=N)N)NC(=O)[C@H](CC(=O)O)NC(=O)[C@H](CC(C)C)NC(=O)[C@H](CCC(=O)O)NC(=O)[C@H](CO)NC1=O [Peptide 2017, Ac-NR8SELDRLS5LELN-NH2] (Ac-N[R8]SELDRL[S5]LELN-NH2; staple 2-9) | 80.6 µM | limited activity compared to 1907 | – |

Reference: patent US20260265304A1, “PEPTIDE INHIBITORS OF FOCAL ADHESION KINASE ACTIVITY AND USES THEREOF” (Arizona Board of Regents on Behalf of the University of …, priority 2019, published 2026)
